In patent US7932271B2, “Heterocyclic methyl sulfone derivative” (Daiichi Pharmaceutical Co., Ltd., priority 2003, dated 2011):

How the values were obtained:
[1] = test system: β amyloid protein (Aβ) secreted by E35 cells (human glioma H4 cells transfected with APP751 gene); test: Inhibition of production or secretion of β-amyloid protein (Aβ) in E35 cells, sandwich ELISA of the supernatant; type: cell-based; details: 24 hours with test compound, compared to DMSO control cells, read-out: Activity (IC50, concentration at which 50% inhibition of Aβ production was observed)
Description: The inhibitory activity against formation of β amyloid protein of the compounds obtained in Examples was tested in the method described bellow.
E35 cells were established by transfecting APP751 gene which is a wild type human β-amyloid protein precursor into human glioma cells (H4 cells).
E35 cells were seeded in 96-well plates and cultured in an incubator of 37° C. by using a Dulbecco's Modified Eagle's Medium containing 10% inactivated fetal bovine serum (10% FBS-DMEM). Twenty-four hours after seeding, a test compound dissolved in DMSO so as to give its concentration to be 2000 times as much as that of the final concentration was added to the medium in an amount of 1/2000 capacity of the culture medium. The cells were cultured for additional twenty-four hours, and then the supernatant was collected. The amount of β amyloid protein (Aβ) secreted in the supernatant was measured by the sandwich enzyme-linked immunosorbent assay (ELISA). Described specifically, a monoclonal antibody 25-1, which recognized Aβ25-35, was immobilized onto a 96-well ELISA plate, followed by the incubation at 4° C. for 16 to 20 hours. After washing with a phosphate buffer (pH 7.4) (PBS), a biotinylated monoclonal antibody MA32-40, which recognized Aβ1-8, was added, and the plate was kept at 4° C. for 2 hours. After the supernatant was removed and the well was washed sufficiently with PBS, alkaline phosphatase-conjugated streptavidin was added to the plate. Absorbance was measured while adding BlouPhos (manufactured by KPL) as a substrate. An amount of Aβ contained in the supernatant was calculated using a calibration curve separately created using Aβ of a known concentration. IC50 of the test compound was presented as the concentration at which 50% inhibition of Aβ production was observed compared to the amount of Aβ of the control cells to which only DMSO was added.
When there is at least 10-times difference between the IC50 and the concentration at which cytotoxicity appears, then the compound is judged as a compound having an inhibitory activity against production or secretion of β amyloid protein.

| Structure (SMILES) | IC50 [1] [nM] | melting point [°C] |
| --- | --- | --- |
| O=S(=O)(c1ccc(Cl)cc1)C(c1cc(F)ccc1F)c1cc(N2CCOCC2)ncc1Cl (centres unmarked) [Example 59, 4-[5-Chloro-4-[(4-chlorophenylsulfonyl)-(2,5-difluorophenyl)methyl]pyridin-2-yl]morpholine] | 5 to 50 | 180 to 181 |
| Nc1cc(C(c2cc(F)ccc2F)S(=O)(=O)c2ccc(Cl)s2)c(Cl)cn1 (centres unmarked) [Example 243, [5-Chloro-4-[(5-chlorothiophen-2-ylsulfonyl)(2,5-difluorophenyl)methyl]pyridin-2-yl]amine] | 5 to 50 | 170 to 171 |
| CS(=O)(=O)Nc1cc(C(c2cc(F)ccc2F)[S+]([O-])c2ccc(Cl)cc2)c(Cl)cn1 (centres unmarked) [Example 221, N-[5-Chloro-4-[(4-chlorophenylsulfinyl)(2,5-difluorophenyl)methyl]pyridin-2-yl]methanesulfonamide] | < 5 | – |
| Cn1cnc(S(=O)(=O)Nc2cc(C(c3cc(F)ccc3F)S(=O)(=O)c3ccc(Cl)cc3)c(Cl)cn2)c1 (centres unmarked) [Example 268, N-[5-Chloro-4-[(4-chlorophenylsulfonyl)(2,5-difluorophenyl)methyl]pyridin-2-yl]-1-methyl-1H-imidazole-4-sulfonamide] | < 5 | 294 to 296 |
| Nc1cc(C(c2cc(F)ccc2F)S(=O)(=O)c2ccc(C(F)(F)F)nc2)c(Cl)cn1 (centres unmarked) [Example 250, [5-Chloro-4-[(2,5-difluorophenyl)(6-trifluoromethylpyridin-3-ylsulfonyl)methyl]pyridin-2-yl]amine] | 5 to 50 | 201 to 202 |
| CS(=O)(=O)Nc1cc(C(c2cc(F)ccc2F)S(=O)(=O)c2ccc(Cl)cn2)c(Cl)cn1 (centres unmarked) [Example 242, N-[5-Chloro-4-[(5-chloropyridin-2-ylsulfonyl)(2,5-difluorophenyl)methyl]pyridin-2-yl]methanesulfonamide] | 50 to 500 | 214 to 216 |
| CS(=O)(=O)CCNc1cc(C(c2cc(F)ccc2F)S(=O)(=O)c2ccc(Cl)cc2)c(Cl)cn1 (centres unmarked) [Example 176, 5-Chloro-4-[(4-chlorophenylsulfonyl)-(2,5-difluorophenyl)methyl]-2-[(2-methylsulfonylethyl)amino]pyridine] | < 5 | – |
| O=S(=O)(c1ccc(Cl)cc1)C(c1cc(F)ccc1F)c1cc(N2CCCS2(=O)=O)ncc1Cl (centres unmarked) [Example 274, 5-Chloro-4-[(4-chlorophenylsulfonyl)(2,5-difluorophenyl)methyl]-2-(1,1-dioxo-1λ^6-isothiazolidin-2-yl)pyridine] | 5 to 50 | 219 to 221 |
| [O-][S+](c1ccc(Cl)cc1)C(c1cc(F)ccc1F)c1ccncc1Cl (centres unmarked) [Example 56, 3-Chloro-4-[(4-chlorophenylsulfinyl)-(2,5-difluorophenyl)methyl]pyridine] | 5 to 50 | – |
| COc1c(C(c2cc(F)ccc2F)S(=O)(=O)c2ccc(Cl)cc2)c(=O)oc2ccccc12 (centres unmarked) [23 (Compound A), 3-[[(4-Chlorophenyl)sulfonyl]-(2,5-difluorophenyl)methyl]-4-methoxychromen-2-one] | 5 to 50 | – |
| OC1CCN(c2cc(C(Sc3ccc(Cl)cc3)c3cc(F)ccc3F)c(Cl)cn2)CC1 (centres unmarked) [Example 115, 5-Chloro-4-[(4-chlorophenylthio)-(2,5-difluorophenyl)methyl]-2-(4′-hydroxypiperidin-1′-yl)pyridine] | < 5 | – |
| O=S(=O)(CCN1CCCCC1)Nc1cc(C(c2cc(F)ccc2F)S(=O)(=O)c2ccc(Cl)cc2)c(Cl)cn1 (centres unmarked) [Example 278, N-[5-Chloro-4-[(4-chlorophenylsulfonyl)(2,5-difluorophenyl)methyl]pyridin-2-yl]-2-piperidin-1-ylethanesulfonamide] | < 5 | 200 to 203 |
| CS(=O)(=O)Nc1cc(C(Sc2ccc(Cl)cc2)c2cc(F)ccc2F)c(Cl)cn1 (centres unmarked) [220 (B), N-[5-chloro-4-[(4-chlorophenylthio)(2,5-difluorophenyl)methyl]pyridin-2-yl]methanesulfonamide] | 50 to 500 | – |
| O=S(=O)(c1ccc(Cl)cc1)C(c1ccc(CO)cn1)c1cc(F)ccc1F (centres unmarked) [Example 43, 2-[(4-Chlorophenylsulfonyl)-(2,5-difluorophenyl)methyl]-5-(hydroxymethyl)pyridine] | 50 to 500 | 151 to 152 |
| CN(CCO)c1cc(C(c2cc(F)ccc2F)S(=O)(=O)c2ccc(Cl)cc2)c(Cl)cn1 (centres unmarked) [Example 164, 2-[[5-Chloro-4-[(4-chlorophenylsulfonyl)-(2,5-difluorophenyl)methyl]pyridin-2-yl](methyl)amino]ethanol] | < 5 | 88 to 89 |
| Nc1cc(C(c2cc(F)ccc2F)S(=O)(=O)c2ccc(Cl)cc2)c(Cl)cn1 (centres unmarked) [Example 196, [5-Chloro-4-[(4-chlorophenylsulfonyl)(2,5-difluorophenyl)methyl]pyridin-2-yl]amine] | < 5 | 147 to 150 |
| Nc1cc(C(c2cc(F)ccc2F)S(=O)(=O)c2ccc(Cl)cc2)c(F)cn1 (centres unmarked) [Example 203, [4-[(4-Chlorophenylsulfonyl)(2,5-difluorophenyl)methyl]-5-fluoropyridin-2-yl]amine] | 5 to 50 | 181 to 183 |
| O=S(=O)(c1ccc(Cl)cc1)C(c1cc(F)ccc1F)c1cc(N2CCC(O)CC2)ncc1Cl (centres unmarked) [Example 116, 5-Chloro-4-[(4-chlorophenylsulfonyl)-(2,5-difluorophenyl)methyl]-2-(4′-hydroxypiperidin-1′-yl)pyridine] | 5 to 50 | 146 to 148 |
| CN1CCN(S(=O)(=O)Nc2cc(C(c3cc(F)ccc3F)S(=O)(=O)c3ccc(Cl)cc3)c(Cl)cn2)CC1 (centres unmarked) [Example 271] | < 5 | 215 to 218 |
| O=S(=O)(c1ccc(Cl)cc1)C(c1cc(F)ccc1F)C1CCCCC1 (centres unmarked) [Example 1, 2-[[(4-Chlorophenyl)sulfonyl](cyclohexyl)methyl]-1,4-difluorobenzene] | 50 to 500 | 107 to 109 |
| NCC1CN(c2cc(C(c3cc(F)ccc3F)S(=O)(=O)c3ccc(Cl)cc3)c(Cl)cn2)CCO1 (centres unmarked) [Example 114, 2-Aminomethyl-4-[5-chloro-4-[(4-chlorophenylsulfonyl)-(2,5-difluorophenyl)methyl]pyridin-2-yl]morpholine] | 5 to 50 | – |
| CN(C)CCS(=O)(=O)Nc1cc(C(c2cc(F)ccc2F)S(=O)(=O)c2ccc(Cl)cc2)c(Cl)cn1 (centres unmarked) [Example 279, N-[5-Chloro-4-[(4-chlorophenylsulfonyl)(2,5-difluorophenyl)methyl]pyridin-2-yl]-2-(dimethylamino)ethanesulfonamide] | < 5 | – |
| CS(=O)(=O)NCc1ccc(C(c2cc(F)ccc2F)S(=O)(=O)c2ccc(Cl)cc2)nc1 (centres unmarked) [Example 82, N-[[6-(4-Chlorophenylsulfonyl)(2,5-difluorophenyl)methylpyridin-3-yl]methyl]methanesulfonamide] | 50 to 500 | – |
| NNc1cc(C(c2cc(F)ccc2F)S(=O)(=O)c2ccc(Cl)cc2)c(Cl)cn1 (centres unmarked) [Example 222, [5-Chloro-4-[(4-chlorophenylsulfonyl)(2,5-difluorophenyl)methyl]pyridin-2-yl]hydrazine] | 5 to 50 | – |
| COC(=O)OCc1ccc(C(c2cc(F)ccc2F)S(=O)(=O)c2ccc(Cl)cc2)nc1 (centres unmarked) [Example 84, [6-(4-Chlorophenylsulfonyl)(2,5-difluorophenyl)methylpyridin-3-yl]methyl methylcarbonate] | 50 to 500 | – |
| CNCCN(C)c1cc(C(c2cc(F)ccc2F)S(=O)(=O)c2ccc(Cl)cc2)c(Cl)cn1 (centres unmarked) [Example 109, 5-Chloro-4-[(4-chlorophenylsulfonyl)-(2,5-difluorophenyl)methyl]-2-[N-methyl-N-[2-(methylamino)ethyl]amino]pyridine] | 5 to 50 | – |
| O=S(=O)(c1ccc(Cl)cc1)C(c1cc(F)ccc1F)c1cc(NCC[N+]2([O-])CCOCC2)ncc1Cl (centres unmarked) [Example 61, 4-[2-[5-Chloro-4-[(4-chlorophenylsulfonyl)-(2,5-difluorophenyl)methyl]pyridin-2-yl]aminoethyl]morpholine-N-oxide] | < 5 | – |
| O=S(=O)(c1ccc(Cl)cc1)C(c1cc(F)ccc1F)c1cc(N2CCC[C@H]2CO)ncc1Cl (some centres unmarked) [Example 111] | 5 to 50 | – |
| O=S(=O)(c1ccc(Cl)cc1)C(c1cc(F)ccc1F)c1cc(NCCN2CCOCC2)ncc1Cl (centres unmarked) [Example 106, 4-[2-[5-Chloro-4-[(4-chlorophenylsulfonyl)-(2,5-difluorophenyl)methyl]pyridin-2-yl]aminoethyl]morpholine] | < 5 | – |
| O=S(=O)(c1ccc(Cl)cc1)C(c1cc(F)ccc1F)c1cc(Cl)ncc1Cl (centres unmarked) [Example 57, 2,5-Dichloro-4-[(4-chlorophenylsulfonyl)-(2,5-difluorophenyl)methyl]pyridine 0.5 hydrate] | 5 to 50 | – |
